# System: E. coli NCTC 12923 growth inhibition, 100 uM
# Test: microbial growth inhibition plus red cell haemolysis – Idler compounds, first plate, PMBN-permeabilized strains, profiling panel (AID 2061108)
# Set-up: haemolysis: dose or concentration left out as unconfirmed
# Conditions: E. coli NCTC 12923 growth inhibition, 100 µM; stronger effect = higher value
row,Structure (SMILES),inhibition [%]
1,CCOc1ccc2ncc(C#N)c(N3CCC(C(=O)NCc4ccccc4F)CC3)c2c1,-44.6
2,CC(C)c1conc1CNc1ccnc(S(=O)(=O)F)c1,-1.22
3,Cn1c(=O)oc2cc(S(=O)(=O)NC3CC4CCC3C4)ccc21 (stereo unspecified),-0.946
4,COc1ccc(Nc2nc(-c3ccoc3)cs2)c(C)c1,-15
5,COc1ccc(-c2ccc(CNc3ccnc(S(=O)(=O)F)c3)s2)cc1,5.81
6,CC(C)NC(=O)Nc1cccc(C(=O)NC(C)c2cccc(Br)c2)c1 (stereo unspecified),-0.541
7,CCOc1ccc(-c2cc(=O)n(CC(=O)N3CCC(Cc4ccccc4)CC3)cn2)cc1,-16.4
8,NC(=O)CSc1nnc(COc2ccccc2)n1-c1ccccc1,-3.24
9,O=S(=O)(c1ccc2nncn2c1)N(Cc1cccc(F)c1)c1ccc2c(c1)OCCO2,-55.8
10,C=CCSc1nc2c(c(=O)[nH]1)C(c1ccc(N(C)C)cc1)C1=C(CCCC1=O)N2 (stereo unspecified),-40
11,Cn1nc(NC(=O)Nc2ccc(Cl)cc2)cc1C(C)(C)C,-25
12,Cc1ncsc1CCCN(C)c1cnc(S(=O)(=O)F)c(Br)c1,1.49
13,Cc1cc(NC(=O)c2ccc(F)c(C(C)(C)C#N)c2)nn1C,-2.97
14,Nc1ncc(/C=N/NC(=O)c2ccncc2)cn1,-0.946
15,COc1cccc(C(=O)NCCOCc2cccc(N)c2)c1,-10.5
16,Cc1cc(C)c(S(=O)(=O)N2CCC(C(=O)NCc3cccnc3)CC2)c(C)c1,-1.08
17,CC1(C)C2CCC1(C)C(OCC(O)CNC1CCCCC1)C2 (stereo unspecified),19.9
18,COC(=O)c1ccc(C2CN(c3ccnc(S(=O)(=O)F)c3)C2)nc1,1.62

# System: M. avium growth inhibition, 10 uM
# Test: as above
# Set-up: haemolysis: dose or concentration left out as unconfirmed
# Conditions: M. avium growth inhibition, 10 µM
row,Structure (SMILES),inhibition [%]
1,CCOc1ccc2ncc(C#N)c(N3CCC(C(=O)NCc4ccccc4F)CC3)c2c1,-1.25
2,CC(C)c1conc1CNc1ccnc(S(=O)(=O)F)c1,0.196
3,Cn1c(=O)oc2cc(S(=O)(=O)NC3CC4CCC3C4)ccc21 (stereo unspecified),-0.637
4,COc1ccc(Nc2nc(-c3ccoc3)cs2)c(C)c1,0.988
5,COc1ccc(-c2ccc(CNc3ccnc(S(=O)(=O)F)c3)s2)cc1,-0.555
6,CC(C)NC(=O)Nc1cccc(C(=O)NC(C)c2cccc(Br)c2)c1 (stereo unspecified),-5.32
7,CCOc1ccc(-c2cc(=O)n(CC(=O)N3CCC(Cc4ccccc4)CC3)cn2)cc1,0.214
8,NC(=O)CSc1nnc(COc2ccccc2)n1-c1ccccc1,0.364
9,O=S(=O)(c1ccc2nncn2c1)N(Cc1cccc(F)c1)c1ccc2c(c1)OCCO2,-0.711
10,C=CCSc1nc2c(c(=O)[nH]1)C(c1ccc(N(C)C)cc1)C1=C(CCCC1=O)N2 (stereo unspecified),0.543
11,Cn1nc(NC(=O)Nc2ccc(Cl)cc2)cc1C(C)(C)C,0.567
12,Cc1ncsc1CCCN(C)c1cnc(S(=O)(=O)F)c(Br)c1,0.0507
13,Cc1cc(NC(=O)c2ccc(F)c(C(C)(C)C#N)c2)nn1C,-0.0495
14,Nc1ncc(/C=N/NC(=O)c2ccncc2)cn1,0.0378
15,COc1cccc(C(=O)NCCOCc2cccc(N)c2)c1,2.24
16,Cc1cc(C)c(S(=O)(=O)N2CCC(C(=O)NCc3cccnc3)CC2)c(C)c1,-0.596
17,CC1(C)C2CCC1(C)C(OCC(O)CNC1CCCCC1)C2 (stereo unspecified),-0.797
18,COC(=O)c1ccc(C2CN(c3ccnc(S(=O)(=O)F)c3)C2)nc1,0.0988

# System: C. albicans NCPF 3281 growth inhibition, 100 uM
# Test: as above
# Set-up: haemolysis: dose or concentration left out as unconfirmed
# Conditions: S. aureus ATCC 9144 growth inhibition; measured here: C. albicans NCPF 3281; at 100 µM; stronger effect = higher value
row,Structure (SMILES),inhibition [%]
1,CCOc1ccc2ncc(C#N)c(N3CCC(C(=O)NCc4ccccc4F)CC3)c2c1,-38.3
2,CC(C)c1conc1CNc1ccnc(S(=O)(=O)F)c1,11.6
3,Cn1c(=O)oc2cc(S(=O)(=O)NC3CC4CCC3C4)ccc21 (stereo unspecified),-18.8
4,COc1ccc(Nc2nc(-c3ccoc3)cs2)c(C)c1,-127
5,COc1ccc(-c2ccc(CNc3ccnc(S(=O)(=O)F)c3)s2)cc1,98.4
6,CC(C)NC(=O)Nc1cccc(C(=O)NC(C)c2cccc(Br)c2)c1 (stereo unspecified),26.3
7,CCOc1ccc(-c2cc(=O)n(CC(=O)N3CCC(Cc4ccccc4)CC3)cn2)cc1,-40.2
8,NC(=O)CSc1nnc(COc2ccccc2)n1-c1ccccc1,-39.3
9,O=S(=O)(c1ccc2nncn2c1)N(Cc1cccc(F)c1)c1ccc2c(c1)OCCO2,-82.4
10,C=CCSc1nc2c(c(=O)[nH]1)C(c1ccc(N(C)C)cc1)C1=C(CCCC1=O)N2 (stereo unspecified),15.9
11,Cn1nc(NC(=O)Nc2ccc(Cl)cc2)cc1C(C)(C)C,-94
12,Cc1ncsc1CCCN(C)c1cnc(S(=O)(=O)F)c(Br)c1,-94.3
13,Cc1cc(NC(=O)c2ccc(F)c(C(C)(C)C#N)c2)nn1C,-51.4
14,Nc1ncc(/C=N/NC(=O)c2ccncc2)cn1,3.92
15,COc1cccc(C(=O)NCCOCc2cccc(N)c2)c1,-63.9
16,Cc1cc(C)c(S(=O)(=O)N2CCC(C(=O)NCc3cccnc3)CC2)c(C)c1,-44.9
17,CC1(C)C2CCC1(C)C(OCC(O)CNC1CCCCC1)C2 (stereo unspecified),100
18,COC(=O)c1ccc(C2CN(c3ccnc(S(=O)(=O)F)c3)C2)nc1,-28.7

# System: red blood cell haemolysis
# Test: as above
# Set-up: haemolysis: dose or concentration left out as unconfirmed
# Conditions: stronger effect = higher value; dose or concentration not given here
row,Structure (SMILES),haemolysis [%]
1,CCOc1ccc2ncc(C#N)c(N3CCC(C(=O)NCc4ccccc4F)CC3)c2c1,0.211
2,CC(C)c1conc1CNc1ccnc(S(=O)(=O)F)c1,-0.292
3,Cn1c(=O)oc2cc(S(=O)(=O)NC3CC4CCC3C4)ccc21 (stereo unspecified),-0.134
4,COc1ccc(Nc2nc(-c3ccoc3)cs2)c(C)c1,0.164
5,COc1ccc(-c2ccc(CNc3ccnc(S(=O)(=O)F)c3)s2)cc1,2.61
6,CC(C)NC(=O)Nc1cccc(C(=O)NC(C)c2cccc(Br)c2)c1 (stereo unspecified),-0.0024
7,CCOc1ccc(-c2cc(=O)n(CC(=O)N3CCC(Cc4ccccc4)CC3)cn2)cc1,2.13
8,NC(=O)CSc1nnc(COc2ccccc2)n1-c1ccccc1,0.123
9,O=S(=O)(c1ccc2nncn2c1)N(Cc1cccc(F)c1)c1ccc2c(c1)OCCO2,8.17
10,C=CCSc1nc2c(c(=O)[nH]1)C(c1ccc(N(C)C)cc1)C1=C(CCCC1=O)N2 (stereo unspecified),-0.046
11,Cn1nc(NC(=O)Nc2ccc(Cl)cc2)cc1C(C)(C)C,0.275
12,Cc1ncsc1CCCN(C)c1cnc(S(=O)(=O)F)c(Br)c1,0.616
13,Cc1cc(NC(=O)c2ccc(F)c(C(C)(C)C#N)c2)nn1C,0.0361
14,Nc1ncc(/C=N/NC(=O)c2ccncc2)cn1,-0.164
15,COc1cccc(C(=O)NCCOCc2cccc(N)c2)c1,0.269
16,Cc1cc(C)c(S(=O)(=O)N2CCC(C(=O)NCc3cccnc3)CC2)c(C)c1,0.266
17,CC1(C)C2CCC1(C)C(OCC(O)CNC1CCCCC1)C2 (stereo unspecified),0.00104
18,COC(=O)c1ccc(C2CN(c3ccnc(S(=O)(=O)F)c3)C2)nc1,-0.16

# System: E. coli NCTC 12923 + PMBN growth inhibition, 100 uM
# Test: as above
# Set-up: haemolysis: dose or concentration left out as unconfirmed
# Conditions: S. aureus ATCC 9144 growth inhibition; measured here: E. coli plus PMBN; at 100 µM; stronger effect = higher value
row,Structure (SMILES),inhibition [%]
1,CCOc1ccc2ncc(C#N)c(N3CCC(C(=O)NCc4ccccc4F)CC3)c2c1,-24
2,CC(C)c1conc1CNc1ccnc(S(=O)(=O)F)c1,-0.37
3,Cn1c(=O)oc2cc(S(=O)(=O)NC3CC4CCC3C4)ccc21 (stereo unspecified),-2.35
4,COc1ccc(Nc2nc(-c3ccoc3)cs2)c(C)c1,-20.1
5,COc1ccc(-c2ccc(CNc3ccnc(S(=O)(=O)F)c3)s2)cc1,14.7
6,CC(C)NC(=O)Nc1cccc(C(=O)NC(C)c2cccc(Br)c2)c1 (stereo unspecified),28.6
7,CCOc1ccc(-c2cc(=O)n(CC(=O)N3CCC(Cc4ccccc4)CC3)cn2)cc1,4.32
8,NC(=O)CSc1nnc(COc2ccccc2)n1-c1ccccc1,2.8
9,O=S(=O)(c1ccc2nncn2c1)N(Cc1cccc(F)c1)c1ccc2c(c1)OCCO2,-20.9

# From PubChem BioAssay AID2061108 (Research group of Professor Matthew Todd, School of …, 2025)
